Source: patent publication US20090137664A1, “SAURURUS CERNUUS COMPOUNDS THAT INHIBIT CELLULAR RESPONSES TO HYPOXIA” (priority 2003, published 2009)

Assays:
[1] = system: secreted VEGF protein; assay: induction of secreted VEGF protein by 1,10-phenanthroline in T47D cells (ELISA); assay type: cell-based, human; settings: T47D, 1,10-phenanthroline 10 μM, 16 hr
Method: Cell plating and compound treatment is similar to those described earlier for hypoxic conditions. […] At the end of the incubation, the concentration of secreted VEGF protein in the conditioned media is determined by ELISA and the data normalized by the number of viable cells.

[2] = system: NCI-H226; assay: NCI in vitro cell line screen (SRB), Non-Small Cell Lung Cancer NCI-H226; assay type: cell-based
Method: (§1) For exemplary purposes, an embodiment of the present invention was tested for activity with respect to certain cancer cell lines. The following Tables show results from in vitro 60-cell line antitumor testing from the US National Cancer Institute Developmental Therapeutics Program (NCI-DTP) on compound 2. The testing was in connection with the NCI's In Vitro Cell Line Screening Project (IVCLSP). Detailed information regarding the experiments and their interpretation is available from the NCI.

[3] = system: UACC-62; assay: NCI in vitro cell line screen (SRB), Melanoma UACC-62; assay type: cell-based
Method: as §1

[4] = system: HOP-62; assay: NCI in vitro cell line screen (SRB), Non-Small Cell Lung Cancer HOP-62; assay type: cell-based
Method: as §1

[5] = system: HIF-1α protein; assay: Western blot, hypoxic induction of nuclear HIF-1α protein in T47D cells; assay type: cell-based, human; settings: T47D nuclear extract, hypoxia 4 hr
Method: Due to the low abundance of HIF-1α protein in whole cell extract, nuclear extract is prepared and the level of HIF-1α protein in the nuclear extract determined by Western blot. Briefly, exponentially grown T47D cells are exposed to compound 2 for 30 minutes. […] Nuclear extracts are prepared from control and treated cells, separated on a SDS/PAGE gel, the separated proteins transferred to a nitrocellulose membrane, incubated with the primary antibodies (anti-HIF-1α, and anti-HIF-1β monoclonal antibodies, Novus Biologicals), secondary antibody biotinylated anti-mouse immunoglobulin G and Vectastain ABC reagent (Vector Laboratories), and developed using ECL reagents (Amersham Biosciences). […] No change in HIF-1β protein level is observed across the treatments. It is reasonable to conclude that the selectivity of compound 2 towards hypoxia-activated HIF-1 is caused by selective blockade of the hypoxic induction of HIF-1 protein.
To investigate the mechanism of action, the effects of these compounds on hypoxic stabilization of HIF-1α protein are examined in T47D cells using Western blot.

[6] = system: secreted VEGF protein; assay: hypoxic induction of secreted VEGF protein in T47D cells (ELISA); assay type: cell-based, human
Method: The effects of compounds 1 and 2 on hypoxic induction of secreted VEGF protein are examined in T47D cells. Exponentially grown T47D cells are plated at the density of 30,000 cells/well into 96-well plates. Compound treatment and hypoxic exposure are the same as described. Following incubation, the concentration of secreted VEGF protein in the conditioned media is determined by ELISA (R & D Systems) and the data normalized by the number of viable cells. Results shown in FIG. 4 are averages from a representative experiment performed in quadruplicate, the bars represent standard error. An asterisk (*) indicates the level of significance (p<0.01) relative to the hypoxic control, two asterisks (**) (p<0.0001), and no asterisk indicates no statistical difference (ANOVA and Fisher's PLSD post hoc test).
As discussed earlier, one important HIF-1 target gene is VEGF, a key factor for tumor angiogenesis. Compounds that can inhibit both HIF-1 activation and the production of secreted VEGF protein represent potential efficacious chemotherapeutic agents that inhibit both tumor survival and hypoxia induced angiogenesis. The effects of four active examples (compounds 2, 3, 4, and 5) on hypoxic induction of secreted VEGF protein are examined in T47D cells and the data are presented in FIG. 9. Exponentially grown T47D cells are plated at the density of 356,000 cells/well into 12-well plates. Compound treatment and hypoxic exposure are the same as described. Following incubation, the concentration of secreted VEGF protein in the conditioned media is determined by ELISA (R & D Systems) and the data normalized by the number of viable cells. […] Hypoxic exposure leads to a 2-fold increase in the level of secreted VEGF protein. […] The level of significance (p<0.01) is determined by ANOVA and Fisher's PLSD post hoc test. The exemplary compounds 2, 3, and 4 all completely block hypoxic induction of secreted VEGF protein at concentrations as low as 10 nM. The exemplary compound 5 inhibits the hypoxic induction by 60% at 10 nM, and completely blocks at 100 nM. When tested at 100 nM, none of the compounds interfere with the ELISA assay using VEGF standard (no greater than 15% difference).

[7] = system: DU-145; assay: NCI in vitro cell line screen (SRB), Prostate Cancer DU-145; assay type: cell-based
Method: as §1

[8] = system: OVCAR-3; assay: NCI in vitro cell line screen (SRB), Ovarian Cancer OVCAR-3; assay type: cell-based
Method: as §1

[9] = Homo sapiens, read-out: LC50 (the source's name)

## COc1ccc([C@@H](O)[C@@H](C)Oc2ccc([C@H]3O[C@H](c4ccc(O[C@H](C)[C@H](O)c5ccc6c(c5)OCO6)c(OC)c4)[C@H](C)[C@H]3C)cc2OC)cc1OC [Compound 2, manassantin B]
[1]
  effect on the induction of secreted VEGF protein by 1,10-phenanthroline: does not effect
[2]
  TGI: 1.77E−5 Molar
[2]; Homo sapiens
  GI50: 0.483 µM
  LC50 (concentration killing 50% of cells): > 100 µM
[2]; Log10 Concentration −4.0 Molar
  Mean Optical Densities: 0.559
  Percent Growth: −16%
[2]; Log10 Concentration −5.0 Molar
  Mean Optical Densities: 0.678
  Percent Growth: 5%
[2]; Log10 Concentration −6.0 Molar
  Mean Optical Densities: 0.765
  Percent Growth: 36%
[2]; Log10 Concentration −7.0 Molar
  Mean Optical Densities: 0.885
  Percent Growth: 79%
[2]; Log10 Concentration −8.0 Molar
  Mean Optical Densities: 0.822
  Percent Growth: 57%
[3]
  TGI: >1.00E−4 Molar
[3]; Homo sapiens
  GI50: 4.47 µM
[3]; [9]
  CC50: > 100 µM
[3]; Log10 Concentration −4.0 Molar
  Mean Optical Densities: 0.573
  Percent Growth: 16%
[3]; Log10 Concentration −5.0 Molar
  Mean Optical Densities: 0.697
  Percent Growth: 35%
[3]; Log10 Concentration −6.0 Molar
  Mean Optical Densities: 0.971
  Percent Growth: 78%
[3]; Log10 Concentration −7.0 Molar
  Mean Optical Densities: 1.072
  Percent Growth: 93%
[3]; Log10 Concentration −8.0 Molar
  Mean Optical Densities: 1.038
  Percent Growth: 88%
[4]
  TGI: >1.00E−4 Molar
[4]; Homo sapiens
  GI50: 57.3 µM
[4]; [9]
  CC50: > 100 µM
[4]; Log10 Concentration −4.0 Molar
  Mean Optical Densities: 0.739
  Percent Growth: 44%
[4]; Log10 Concentration −5.0 Molar
  Mean Optical Densities: 0.893
  Percent Growth: 68%
[4]; Log10 Concentration −6.0 Molar
  Mean Optical Densities: 0.971
  Percent Growth: 81%
[4]; Log10 Concentration −7.0 Molar
  Mean Optical Densities: 0.982
  Percent Growth: 82%
[4]; Log10 Concentration −8.0 Molar
  Mean Optical Densities: 0.924
  Percent Growth: 73%
[5]
  hypoxic induction of HIF-1α protein: specifically inhibits
[6]; 12-well, p<0.01
  inhibition of VEGF protein levels relative to the hypoxia-induced positive control: significantly inhibit
[6]; 96-well, 1 at 100 nM, 2 at 10 nM, PD98059 at 100 μM
  reduction of secreted VEGF protein induced by hypoxia: statistically significant reduction
[6]; hypoxia
  relative potency in reducing the level of secreted VEGF protein: ten times more potent than 1
[7]
  TGI: >1.00E−4 Molar
[7]; Homo sapiens
  GI50: 10.6 µM
[7]; [9]
  CC50: > 100 µM
[7]; Log10 Concentration −4.0 Molar
  Mean Optical Densities: 0.487
  Percent Growth: 28%
[7]; Log10 Concentration −5.0 Molar
  Mean Optical Densities: 0.623
  Percent Growth: 51%
[7]; Log10 Concentration −6.0 Molar
  Mean Optical Densities: 0.800
  Percent Growth: 81%
[7]; Log10 Concentration −7.0 Molar
  Mean Optical Densities: 0.831
  Percent Growth: 86%
[7]; Log10 Concentration −8.0 Molar
  Mean Optical Densities: 0.817
  Percent Growth: 83%
[8]
  TGI: 4.32E−6 Molar
[8]; Homo sapiens
  GI50: 0.627 µM
[8]; [9]
  CC50: > 100 µM
[8]; Log10 Concentration −4.0 Molar
  Mean Optical Densities: 0.367
  Percent Growth: −36%
[8]; Log10 Concentration −5.0 Molar
  Mean Optical Densities: 0.465
  Percent Growth: −19%
[8]; Log10 Concentration −6.0 Molar
  Mean Optical Densities: 0.616
  Percent Growth: 33%
[8]; Log10 Concentration −7.0 Molar
  Mean Optical Densities: 0.722
  Percent Growth: 117%
[8]; Log10 Concentration −8.0 Molar
  Mean Optical Densities: 0.679
  Percent Growth: 83%
